Reference: patent US20100029654A1, “CARDIOVASCULAR COMPOSITIONS AND USE OF THE SAME FOR THE TREATMENT OF ALZHEIMER'S DISEASE” (MOUNT SINAI SCHOOL OF MEDICINE, priority 2006, published 2010)
Counter-ions that a name gives are not always drawn. Like-named read-outs stand apart in the source and are kept apart here.

Tests used:
Aβ1-40 = Aβ1-40 content in conditioned medium of primary cortico-hippocampal neuron cultures from Tg2576 mice (ELISA; primary and secondary dose-response screening); assay type: cell-based, mouse; conditions: for activity at 100 µM: Mus musculus, Neuron, 24 h, read-out: Ab1-40 (% of ctl); for activity at 100 µM / Ab1-40 (% of ctl): drug 100 μM; for reduced Aβ1-40: <85% of ctl
Method: (§1) Potential Aβ-lowering activity was assessed for 150 commercially available cardiovascular drugs using primary cortico-hippocampal neuron cultures derived from embryonic Tg2576 (El 6). […] All cardiovascular reagents were obtained from MicroSource Discovery Systems Inc (Gaylordsville, Conn.). […] Individual cardiovascular agents were applied directly to the culture medium (final 1% DMSO in the culture media). In control studies, parallel Tg2576 primary neuron cultures were treated with vehicle (1% DMSO) alone. The influence of drug treatments in Aβ content in the conditioned medium in treated cultures was assessed by assessing steady state levels of Aβ1-40 and Aβ1-42 in the culture media 24 hours after treatment.
(§2) Embryonic brain tissue was mechanically triturated and centrifuged. Neurons were seeded onto poly-D-lysine-coated 96-well plates at 1.0×10^5 cells per well and cultured in the serum-free chemically-defined medium Neurobasal, supplemented with 2% B27, 0.5 mM L-glutamine and 1% penicillin-streptomycin (Gibco-BRL).
(§3) For primary screening, cultured neurons were treated with 100 μM of drug in duplicates for 16 hours; all drugs were obtained in stock from MicroSource Discovery Systems Inc (Gaylordsville, Conn.). Conditioned medium was collected for Aβ detection using commercially available ELISA kits (BioSource). […] Primary neurons prepared in 96-well plates were treated with 0.1 μM, 1 μM, 10 μM, 50 μM, and 100 μM of each drug in duplicate for ˜16 hours and conditioned medium was collected for Aβ detection.

Aβ1-42 = Aβ1-42 content in conditioned medium of primary cortico-hippocampal neuron cultures from Tg2576 mice (ELISA; primary and secondary dose-response screening); assay type: cell-based, mouse; conditions: for activity at 100 µM: Mus musculus, Neuron, 24 h, read-out: Ab1-42 (% of ctl); for activity at 100 µM / Ab1-42 (% of ctl): drug 100 μM; for reducing Aβ1-42: <85% of ctl
Method: as §1, §2, §3

[1] = system: primary cortico-hippocampal neuron cultures; test: MTT in primary screening
[2] = system: primary cortico-hippocampal neuron cultures; test: lactate dehydrogenase (LDH) activity assay in parallel neuron cultures
Method: For in vitro treatments drugs available from “The Spectrum Collection” in stocks of 10 mM in DMSO were applied directly to cultures to the desired concentrations (final 1% DMSO); control primary neuron cultures from Tg2576 embryos were treated with vehicle resulting in a final 1% DMSO.
Cell viability was assessed using a commercial available LDH assay kit according to the manufacture's instruction (Promega).

[3] = Primary Screening, table sorted by Aβ1-40
[4] = primary screening, Tg2576 neuron cultures, table sorted by Aβ1-42
[5] = primary screening, table sorted by Aβ1-42

SMILES	activity at 100 µM (Aβ1-40; [3]) [%]	activity at 100 µM (Aβ1-40; [4]) [%]	activity at 100 µM (Aβ1-42; [3]) [%]	activity at 100 µM (Aβ1-42; [4]) [%]	MTT (% of ctl) [1, 3]	MTT (% of ctl) [1, 5]	LDH (% of ctl) [2, 3]	LDH (% of ctl) [2, 5]	reduced Aβ1-40 (Aβ1-40; primary screening)	reducing Aβ1-42 (Aβ1-42; primary screening)	Ab1-40 (% of ctl) (Aβ1-40; [3])	Ab1-40 (% of ctl) (Aβ1-40; [4])	Ab1-42 (% of ctl) (Aβ1-42; [3])	Ab1-42 (% of ctl) (Aβ1-42; [4])
Cc1ccccc1N1C(=O)c2cc(S(N)(=O)=O)c(Cl)cc2NC1C (stereo not drawn) [Metolazone]	104	104	98	98	69.7 % of ctl	69.7 % of ctl	103.7 % of ctl	103.7 % of ctl	–	–	–	–	–	–
CN1C(C)(C)CCCC1(C)C [Pempidine Tartrate]	80.9	80.9	78.6	78.6	91.3 % of ctl	91.3 % of ctl	108.4 % of ctl	108.4 % of ctl	reduced Aβ1-40	useful in reducing Aβ1-42	–	–	–	–
CC1Cc2ccccc2N1NC(=O)c1ccc(Cl)c(S(N)(=O)=O)c1 (stereo not drawn) [Indapamide]	107	107	91.3	91.3	104.2 % of ctl	104.2 % of ctl	85.3 % of ctl	85.3 % of ctl	–	–	–	–	–	–
CCOC(=O)[N-]c1cn(N2CCOCC2)n[o+]1 [Molsidomine]	118	118	121	121	15.0 % of ctl	15.0 % of ctl	1127.4 % of ctl	1127.4 % of ctl	–	–	–	–	–	–
CC(=O)O[C@H]1C[C@H](O[C@H]2[C@@H](O)C[C@H](O[C@H]3[C@@H](O)C[C@H](O[C@H]4CC[C@@]5(C)[C@H](CC[C@@H]6[C@@H]5C[C@@H](O)[C@]5(C)[C@@H](C7=CC(=O)OC7)CC[C@]65O)C4)O[C@@H]3C)O[C@@H]2C)O[C@H](C)[C@H]1O[C@@H]1O[C@H](CO)[C@@H](O)[C@H](O)[C@H]1O [Lanatoside C]	–	–	–	–	66.5 % of ctl	66.5 % of ctl	166.0 % of ctl	166.0 % of ctl	reduced Aβ1-40	–	45.8 % of ctl	45.8 % of ctl	100.3 % of ctl	100.3 % of ctl
CCOC(=O)C1=C[C@]2(CC)CCCN3CCc4c(n1c1ccccc41)[C@@H]32 [Vinpocetine]	60.4	60.4	105	105	87.7 % of ctl	87.7 % of ctl	111.3 % of ctl	111.3 % of ctl	reduced Aβ1-40	–	–	–	–	–
CCCNCC(O)COc1ccccc1C(=O)CCc1ccccc1 (stereo not drawn) [Propafenone Hydrochloride]	36.3	36.3	56.4	56.4	95.2 % of ctl	95.2 % of ctl	113.7 % of ctl	113.7 % of ctl	reduced Aβ1-40	useful in reducing Aβ1-42	–	–	–	–
CC(=O)Nc1nnc(S(N)(=O)=O)s1 [Acetazolamide]	115	115	118	118	78.0 % of ctl	78.0 % of ctl	173.5 % of ctl	173.5 % of ctl	–	–	–	–	–	–
C=CCSCC1Nc2cc(Cl)c(S(N)(=O)=O)cc2S(=O)(=O)N1 (stereo not drawn) [Althiazide]	74.4	74.4	65.4	65.4	99.7 % of ctl	99.7 % of ctl	109.0 % of ctl	109.0 % of ctl	reduced Aβ1-40	useful in reducing Aβ1-42	–	–	–	–
CC(=O)S[C@@H]1CC2=CC(=O)CC[C@]2(C)[C@H]2CC[C@@]3(C)[C@@H](CC[C@@]34CCC(=O)O4)[C@H]12 [Spironolactone]	60.4	60.4	70.7	70.7	117.0 % of ctl	117.0 % of ctl	100.6 % of ctl	100.6 % of ctl	reduced Aβ1-40	useful in reducing Aβ1-42	–	–	–	–
Nc1nc(N)c2nc(-c3ccccc3)c(N)nc2n1 [Triamterene]	85.1	85.1	64.2	64.2	93.8 % of ctl	93.8 % of ctl	103.3 % of ctl	103.3 % of ctl	–	useful in reducing Aβ1-42	–	–	–	–
CC(=O)CCCCn1c(=O)c2c(ncn2C)n(C)c1=O [Pentoxifylline]	97.1	97.1	109	109	91.1 % of ctl	91.1 % of ctl	132.4 % of ctl	132.4 % of ctl	–	–	–	–	–	–
Fc1ccc(C(c2ccc(F)cc2)N2CCN(C/C=C/c3ccccc3)CC2)cc1 [Flunarizine Hydrochloride]	42.1	42.1	53.3	53.3	59.4 % of ctl	59.4 % of ctl	120.4 % of ctl	120.4 % of ctl	reduced Aβ1-40	useful in reducing Aβ1-42	–	–	–	–
NS(=O)(=O)c1cc2c(cc1Cl)N=C(CSCc1ccccc1)NS2(=O)=O [Benzthiazide]	106	106	98.9	98.9	98.5 % of ctl	98.5 % of ctl	105.1 % of ctl	105.1 % of ctl	–	–	–	–	–	–
O=c1oc2ccccc2c(O)c1Cc1c(O)c2ccccc2oc1=O [Dicumarol]	51.3	51.3	54	54	97.0 % of ctl	97.0 % of ctl	93.3 % of ctl	93.3 % of ctl	reduced Aβ1-40	useful in reducing Aβ1-42	–	–	–	–
CCOC(=O)[C@H](CCc1ccccc1)N[C@H]1CCc2ccccc2N(CC(=O)O)C1=O [Benazepril Hydrochloride]	116	116	115	115	99.5 % of ctl	99.5 % of ctl	103.5 % of ctl	103.5 % of ctl	–	–	–	–	–	–
C=C[C@H]1C[N@@]2CC[C@H]1C[C@@H]2[C@@H](O)c1ccnc2ccc(OC)cc12 [Quinidine Gluconate]	63.3	63.3	70	70	46.8 % of ctl	46.8 % of ctl	357.6 % of ctl	357.6 % of ctl	reduced Aβ1-40	useful in reducing Aβ1-42	–	–	–	–
O=C(O)C(O)C(O)C(=O)O.OCc1cccnc1 (stereo not drawn) [Nicotinyl Tartrate]	–	–	–	–	92.7 % of ctl	92.7 % of ctl	122.6 % of ctl	122.6 % of ctl	reduced Aβ1-40	useful in reducing Aβ1-42	80.0 % of ctl	80.0 % of ctl	73.8 % of ctl	73.8 % of ctl
COc1ccc2cc1Oc1ccc(cc1)C[C@H]1c3cc(c(OC)cc3CCN1C)Oc1c(OC)c(OC)cc3c1[C@H](C2)N(C)CC3 [Tetrandrine]	4.5	4.5	25.2	25.2	112.5 % of ctl	112.5 % of ctl	117.6 % of ctl	117.6 % of ctl	–	–	–	–	–	–
